Laboratory results published in US7709471B2, “Compounds” (AstraZeneca AB, priority 2006, dated 2010).
pIC50: −log10 of the molar value.

Key:
[1] = test system: human colon tumour cell line HT29; experiment: Cellular Assay (phosphohistone H3 Ser10 mitotic marker, HT29); assay type: cell-based; conditions: HT-29, 24 h, HT29 cells, read-out: IC50 (cellular assay, phosphohistone H3)
[2] = target: recombinant Plk1 (Homo sapiens, UniProt P53350); experiment: In Vitro Plk1 Enzyme Assay (SPA, GST-Cdc25C phosphorylation); assay type: biochemical; conditions: ATP 64 nM, 90 minutes, read-out: IC50 (Plk1 enzyme inhibition)
Chain of recombinant Plk1 (P53350 whole entry): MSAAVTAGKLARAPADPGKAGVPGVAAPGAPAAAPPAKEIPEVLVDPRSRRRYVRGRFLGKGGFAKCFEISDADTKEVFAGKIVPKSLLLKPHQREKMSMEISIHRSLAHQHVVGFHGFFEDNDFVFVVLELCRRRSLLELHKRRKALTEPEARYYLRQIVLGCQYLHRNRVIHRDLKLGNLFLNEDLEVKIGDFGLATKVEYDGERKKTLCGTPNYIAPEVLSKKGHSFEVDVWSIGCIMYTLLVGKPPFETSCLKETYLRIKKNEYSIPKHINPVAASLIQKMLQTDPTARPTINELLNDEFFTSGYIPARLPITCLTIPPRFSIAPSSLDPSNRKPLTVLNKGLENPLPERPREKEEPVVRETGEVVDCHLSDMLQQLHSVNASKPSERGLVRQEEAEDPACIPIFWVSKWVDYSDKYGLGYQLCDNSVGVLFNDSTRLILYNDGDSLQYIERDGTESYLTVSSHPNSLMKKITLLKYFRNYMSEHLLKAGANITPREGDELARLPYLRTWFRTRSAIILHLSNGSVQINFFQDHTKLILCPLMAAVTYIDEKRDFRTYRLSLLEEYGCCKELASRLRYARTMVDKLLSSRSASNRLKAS

pIC50 [1] | pIC50 [2] | SMILES
> 6.52 | > 6.52 | COc1cc(C(=O)NCC(C)(C)CN(C)C)ccc1Nc1ncc2c(n1)N(C1CCCC1)CC1(CC1)C(=O)N2C [Example 386, 4-(9′-cyclopentyl-5′-methyl-6′-oxo-5′,6′,8′,9′-tetrahydrospiro[cyclopropane-1,7′-pyrimido[5,4-b][1,4]diazepine]-2′-ylamino)-N-(3-dimethylamino-2,2-dimethyl-propyl)-3-methoxy-benzamide]
> 4.52 | > 6.00 | COc1cc(NCCN(C)C)ccc1Nc1ncc2c(n1)N(C1CCCC1)CCC(=O)N2C [Example 107, 6-cyclopentyl-9-[[4-(2-dimethylaminoethylamino)-2-methoxy-phenyl]amino]-2-methyl-2,6,8,10-tetrazabicyclo[5.4.0]undeca-8,10,12-trien-3-one]
> 6.00 | > 6.00 | COc1cc(OC2CCN(C)CC2)ccc1Nc1ncc2c(n1)N(C1CCCC1)CCC(=O)N2C [Example 113, 6-cyclopentyl-9-[[2-methoxy-4-[(1-methyl-4-piperidyl)oxy]phenyl]amino]-2-methyl-2,6,8,10-tetrazabicyclo[5.4.0]undeca-8,10,12-trien-3-one]
> 6.52 | > 6.52 | CNCCCNC(=O)c1ccc(Nc2ncc3c(n2)N(C2CCCC2)CCC(=O)N3C)c(OC)c1 [Example 44, 4-[(6-cyclopentyl-2-methyl-3-oxo-2,6,8,10-tetrazabicyclo[5.4.0]undeca-8,10,12-trien-9-yl)amino]-3-methoxy-N-(3-methylaminopropyl)benzamide]
> 4.52 | > 6.00 | COc1ccc(CCNC(C)=O)cc1Nc1ncc2c(n1)N(C1CCCC1)CCC(=O)N2C [Example 138, N-[2-[3-[(6-cyclopentyl-2-methyl-3-oxo-2,6,8,10-tetrazabicyclo[5.4.0]undeca-8,10,12-trien-9-yl)amino]-4-methoxy-phenyl]ethyl]acetamide]
> 4.52 | > 4.00 | CN1CCC(NC(=O)c2cnc(Nc3ncc4c(n3)N(C3CCCC3)CCC(=O)N4C)s2)CC1 [Example 263, 2-[(6-cyclopentyl-2-methyl-3-oxo-2,6,8,10-tetrazabicyclo[5.4.0]undeca-8,10,12-trien-9-yl)amino]-N-(1-methyl-4-piperidyl)1,3-thiazole-5-carboxamide]
> 6.00 | > 4.00 | CN1C(=O)CCN(C2CCCC2)c2nc(Nc3ccc(OCCN4CCOCC4)cc3)ncc21 [Example 135, 6-cyclopentyl-2-methyl-9-[[4-(2-morpholin-4-ylethoxy)phenyl]amino]-2,6,8,10-tetrazabicyclo[5.4.0]undeca-8,10,12-trien-3-one]
> 6.00 | > 6.00 | CC(C)Oc1cc(C(=O)NC2CCN(C)CC2)ccc1Nc1ncc2c(n1)N(C1CCCC1)CCC(=O)N2C [Example 197, 4-[(6-cyclopentyl-2-methyl-3-oxo-2,6,8,10-tetrazabicyclo[5.4.0]undeca-8,10,12-trien-9-yl)amino]-N-(1-methyl-4-piperidyl)-3-propan-2-yloxy-benzamide]
> 4.52 | > 6.00 | CN1C(=O)CCN(C2CCCC2)c2nc(Nc3cccc(CO)c3)ncc21 [Example 173, 6-cyclopentyl-9-[[3-(hydroxymethyl)phenyl]amino]-2-methyl-2,6,8,10-tetrazabicyclo[5.4.0]undeca-8,10,12-trien-3-one]
> 6.52 | > 6.00 | CCOc1cc(C(=O)NC2CCN(C)CC2)ccc1Nc1ncc2c(n1)N(C1CCCC1)CCC(=O)N2C [Example 200, 4-[(6-cyclopentyl-2-methyl-3-oxo-2,6,8,10-tetrazabicyclo[5.4.0]undeca-8,10,12-trien-9-yl)amino]-3-ethoxy-N-(1-methyl-4-piperidyl)benzamide]
> 4.52 | > 6.00 | CC(=O)N1CCc2cc(Nc3ncc4c(n3)N(C3CCCC3)CCC(=O)N4C)ccc21 [Example 124, 9-[(1-acetyl-2,3-dihydroindol-5-yl)amino]-6-cyclopentyl-2-methyl-2,6,8,10-tetrazabicyclo[5.4.0]undeca-8,10,12-trien-3-one]
> 6.52 | > 6.00 | COCCN1CCC(NC(=O)c2ccc(Nc3ncc4c(n3)N(C3CCCC3)CC(C)(C)C(=O)N4C)c(OC)c2)CC1 [Example 244, 4-[(2-cyclopentyl-4,4,6-trimethyl-5-oxo-2,6,9,11-tetrazabicyclo[5.4.0]undeca-7,9,11-trien-10-yl)amino]-3-methoxy-N-[1-(2-methoxyethyl)-4-piperidyl]benzamide]
– | > 4.00 | CN1C(=O)CCN(C2CCCC2)c2nc(Nc3ccccc3C(=O)c3ccccc3)ncc21 [Example 144, 9-[(2-benzoylphenyl)amino]-6-cyclopentyl-2-methyl-2,6,8,10-tetrazabicyclo[5.4.0]undeca-8,10,12-trien-3-one]
– | > 4.00 | COc1ccc(Nc2ncc3c(n2)N(C2CCCC2)CCC(=O)N3C)cc1 [Example 120, 6-cyclopentyl-9-[(4-methoxyphenyl)amino]-2-methyl-2,6,8,10-tetrazabicyclo[5.4.0]undeca-8,10,12-trien-3-one]
– | > 6.00 | CN(C)CC(C)(C)CNC(=O)c1ccc(Nc2ncc3c(n2)N(c2ccccc2)CCC(=O)N3C)c(Cl)c1 [Example 225, 3-chloro-N-(3-dimethylamino-2,2-dimethyl-propyl)-4-[(2-methyl-3-oxo-6-phenyl-2,6,8,10-tetrazabicyclo[5.4.0]undeca-8,10,12-trien-9-yl)amino]benzamide]
– | > 4.00 | CN1C(=O)CCN(C2CCCC2)c2nc(Nc3ccc(C#N)c(C(F)(F)F)c3)ncc21 [Example 116, 4-[(6-cyclopentyl-2-methyl-3-oxo-2,6,8,10-tetrazabicyclo[5.4.0]undeca-8,10,12-trien-9-yl)amino]-2-(trifluoromethyl)benzonitrile]
– | > 6.52 | CN1C(=O)CCN(C2CCCC2)c2nc(Nc3ccccc3O)ncc21 [Example 142, 6-cyclopentyl-9-[(2-hydroxyphenyl)amino]-2-methyl-2,6,8,10-tetrazabicyclo[5.4.0]undeca-8,10,12-trien-3-one]
– | > 6.00 | CN1C(=O)CCN(c2ccccc2)c2nc(Nc3ccc(C(=O)NCCN4CCOCC4)cc3Cl)ncc21 [Example 226, 3-chloro-4-[(2-methyl-3-oxo-6-phenyl-2,6,8,10-tetrazabicyclo[5.4.0]undeca-8,10,12-trien-9-yl)amino]-N-(2-morpholin-4-ylethyl)benzamide]

SMILES | pIC50 [1] | pIC50 [2]
COc1cc(C(=O)NC2CC3CCC(C2)N3C)ccc1Nc1ncc2c(n1)N(C1CCCC1)CCC(=O)N2C [Example 71, 4-[(6-cyclopentyl-2-methyl-3-oxo-2,6,8,10-tetrazabicyclo[5.4.0]undeca-8,10,12-trien-9-yl)amino]-3-methoxy-N-[(1S,5R)-8-methyl-8-azabicyclo[3.2.1]oct-3-yl]benzamide] | > 6.52 | > 6.52
COc1cc(C(=O)NC2C[C@H]3CCC[C@@H](C2)N3C)ccc1Nc1ncc2c(n1)N(C1CCCCC1)CC1(CC1)C(=O)N2C (stereo partly drawn) [Example 432, 4-(9′-cyclohexyl-5′-methyl-6′-oxo-5′,6′,8′,9′-tetrahydrospiro[cyclopropane-1,7′-pyrimido[5,4-b][1,4]diazepine]-2′-ylamino)-3-methoxy-N-[(1S,5R)-9-methyl-9-azabicyclo[3.3.1]non-7-yl]benzamide] | > 6.52 | > 6.52
